Test results from US20120196915A1, “Antitumor 1,2-Diphenylpyrrole Compounds and their Preparation Process” (ARGON PHARMA, S.L., priority 2009, published 2012).

Legend:
H-727 cell line = test: Cell viability assay (XTT), H-727; format: cell-based, human
Method: (§1) H-727 and H-460 cell lines, derived from human lung carcinoma, and human prostate carcinoma PC3 cells, were cultured in RPMI 1640 medium supplemented with 10% fetal bovine serum, 1% glutamine and 100 units/ml penicillin/streptomycin (Life Technologies, Inc.). LS174T cells, derived from human colorectal carcinoma, and CAL51 cells, from breast carcinoma, were cultured in DMEM medium supplemented with 10% fetal bovine serum, 1% glutamine and 100 units/ml penicillin/streptomycin (Life Technologies, Inc.). All cell lines were incubated at 37° C. in a humidified atmosphere containing 5% CO2. The stock solution of each compound was reconstituted in DMSO and diluted in culture media before use.
(§2) Antitumor activity was evaluated measuring cell metabolic capacity (viability), using the Cell Proliferation Kit II (XTT) and following the recommendations of the manufacturer (Roche Diagnostics). The assays were carried out in triplicates, with controls containing unexposed cells, cells with vehicle, or media plus compound. Cells were seeded into 96-well plates in 100 μl of media and incubated for 24 h. […] After 4 h of incubation at 37° C., the absorbance at 490 nm was read. The growth inhibitory activity was obtained subtracting the absorbance of the blanks and expressed as percentage of cell growth inhibition, as compared with untreated controls.

LS174T cell line = test: Cell viability assay (XTT), LS174T; format: cell-based, human; conditions: 4 h exposure, 20, 40 or 60 μM, in comparison with the comparative compound
Method: as §1, §2

PC3 cell line = test: Cell viability assay (XTT), PC3; format: cell-based, human; conditions: PC3, 4 h exposure, 20, 40 or 60 μM, in comparison with the comparative compound
Method: as §1, §2

CAL51 cell line = test: Cell viability assay (XTT), CAL51; format: cell-based; conditions: CAL51, 4 h exposure, 20, 40 or 60 μM, in comparison with the comparative compound
Method: as §1, §2

H-460 cell line = test: Cell viability assay (XTT), H-460; format: cell-based, human; conditions: H-460, 4 h exposure, 20, 40 or 60 μM, in comparison with the comparative compound
Method: as §1, §2

Compound: NS(=O)(=O)c1ccc(-n2cc(C(F)(F)F)cc2-c2cc(C(F)(F)F)cc(C(F)(F)F)c2)cc1 [Example 2, 4-[2-(3,5-Bis(trifluoromethyl)phenyl)-4-(trifluoromethyl)-1H-pyrrol-1-yl]benzenesulfonamide]
- tumor cell viability (H-727 cell line; H-727, 4 h exposure, 20, 40 or 60 μM, in comparison with the comparative compound): significantly reduced tumor cell viability
- reduction in the tumor cell viability percentage (H-727 cell line; H-727, at 40 μm, 4 h, as compared to the comparative example): more than 50%
- tumor cell viability (LS174T cell line): significantly reduced tumor cell viability
- tumor cell viability (PC3 cell line): significantly reduced tumor cell viability
- tumor cell viability (CAL51 cell line): significantly reduced tumor cell viability
- tumor cell viability (H-460 cell line): significantly reduced tumor cell viability
